From PubChem BioAssay (NCI)
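Exposure lasted 48 hours, with cells grown in 96-well plates and compounds tested at five concentrations. TGI: total growth inhibition.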 Where a SMILES comes first, the peptide text is derived from it. [ ]: non-standard residue; d: D form. The star is where a group is joined. NMeAc5c = CNC1(C(=O)O)CCCC1; Boc = CC(C)(C)OC(=O)*; OBn = c1ccc(CO*)cc1

Legend:
Assay in all cases: growth of human tumour cells (NCI), 48 h
[1] = system: EKVX NSCLC
[2] = system: HCT-15 colon
[3] = system: HS 578T breast
[4] = system: IGROV1 ovarian
[5] = system: MOLT-4 leukemia
[6] = system: NCI-H226 lung
[7] = system: NCI-H522 lung
[8] = system: SF-295 CNS
[9] = system: SN12C renal
[10] = system: DU-145 prostate
[11] = system: CAKI-1 renal

| SMILES | TGI [1] [µM] | TGI [2] [µM] | TGI [3] [µM] | TGI [4] [µM] | TGI [5] [µM] | TGI [6] [µM] | TGI [7] [µM] | TGI [8] [µM] | TGI [9] [µM] | TGI [10] [µM] | TGI [11] [µM] |
| --- | --- | --- | --- | --- | --- | --- | --- | --- | --- | --- | --- |
| O=C1CCCc2cc3c(cc21)CC1(Cc2ccccc2C1)C3 | > 100 | 24.4 | > 100 | > 100 | 19.3 | 12.8 | 21.5 | 21.5 | 41 | – | – |
| CN(C(=O)C(Cc1ccccc1)NC(=O)OC(C)(C)C)C1(C(=O)NC(Cc2ccccc2)C(=O)OCc2ccccc2)CCCC1 (stereo not drawn) (Boc-Phe-[NMeAc5c]-Phe-OBn; configuration not given here) | > 100 | > 100 | > 100 | > 100 | 84.2 | > 100 | – | > 100 | > 100 | > 100 | – |
| C[C@@H](NC(=O)[C@@H]1C[C@]1(C)COC(=O)c1cc([N+](=O)[O-])cc([N+](=O)[O-])c1)c1cccc2ccccc12 | > 100 | > 100 | > 100 | > 100 | > 100 | > 100 | – | > 100 | > 100 | > 100 | > 100 |
| Cc1n[nH]c(=O)n1/N=C/c1ccc(Cl)cc1 | 72.5 | > 100 | – | – | > 100 | – | > 100 | > 100 | > 100 | > 100 | > 100 |
| COc1ccc(C2CC(c3c(O)ccc4ccccc34)=NN2C(C)=O)cc1OC (stereo not given) | – | > 100 | > 100 | > 100 | 53.6 | > 100 | > 100 | > 100 | > 100 | 92 | > 100 |
| C=C(C)C(=O)OC1C/C(CO)=C\C(O)C/C(C)=C/C2OC(=O)C(=C)C21 (stereo not given) | 69.1 | 29.6 | – | > 100 | 56.2 | 79.5 | 30.3 | > 100 | 38.8 | – | 58.7 |
| CCCCC#C[I+]c1ccccc1 | 33.4 | 30 | – | 36.4 | 23.9 | 30.7 | 15.5 | 43.5 | 28.3 | – | 27.1 |
| COc1cc(C(=O)N(C(=S)OCc2ccccn2)c2ccccc2)cc(OC)c1OC | 79.9 | > 100 | > 100 | 79.6 | > 100 | > 100 | – | – | > 100 | > 100 | > 100 |
| C[C@@H]1CC[C@]2(C(=O)O)CC[C@]3(C)C(=CC[C@@H]4[C@@]5(C)CC[C@H](O)C(C)(C)[C@@H]5CC[C@]43C)[C@@H]2[C@]1(C)O | 33 | 24.2 | 16.1 | 30.7 | 18.3 | – | 27.9 | 10.6 | 30.1 | 21.1 | 27.3 |
| CCOC(=O)/C=C/CC(C)(C)CCOC(C)=O | – | > 10 | > 10 | > 10 | > 10 | > 10 | > 10 | > 10 | > 10 | > 10 | > 10 |
| Cc1c(O)c(O)cc[n+]1C1OC(CO)C(O)C1O (stereo not given) | > 100 | > 100 | – | > 100 | – | > 100 | > 100 | – | > 100 | – | > 100 |
